Data on 9 compounds can be found in US8563714B2, “Bridged spiro [2.4] heptane derivatives as ALX receptor and/or FPRL2 agonists” (Actelion Pharmaceuticals Ltd., priority 2009, dated 2013).

pEC50: −log10 of the molar value.

One experiment deals with T1, human FPRL2 (Homo sapiens, UniProt P25089).
T1 construct: expressed in transfected cells; host or cells: HEK293 (HEK293-hFPRL2-Gα16)
T1 sequence (P25089 1-353): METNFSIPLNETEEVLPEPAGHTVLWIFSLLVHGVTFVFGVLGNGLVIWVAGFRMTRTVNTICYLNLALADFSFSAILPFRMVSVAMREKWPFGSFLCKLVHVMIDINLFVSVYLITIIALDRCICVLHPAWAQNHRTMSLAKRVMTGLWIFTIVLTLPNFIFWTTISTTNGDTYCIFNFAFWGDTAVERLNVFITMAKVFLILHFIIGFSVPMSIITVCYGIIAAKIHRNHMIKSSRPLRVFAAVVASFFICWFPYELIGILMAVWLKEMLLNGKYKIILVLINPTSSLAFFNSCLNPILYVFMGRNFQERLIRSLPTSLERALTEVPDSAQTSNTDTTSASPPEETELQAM
Nature of the experiment: Intracellular calcium measurements (FLIPR), agonistic activity in HEK293-hFPRL2-Gα16 cells. It is filed as cell-based. The note with it: Fluo-4 calcium FLIPR, normalized to GLY14-Humanin 100 nM. The method, then: (§1) The ALX receptor and FPRL2 agonistic activities of the compounds of formula (I) are determined in accordance with the following experimental method.
(§2) Intracellular Calcium Measurements:
Cells expressing recombinant human FPRL2 and the G-protein Gα16 (HEK293-hFPRL2-Gα16) were grown to 80% confluency in Growing Medium (GM). […] Stock solutions of test compounds were made up at a concentration of 10 mM in DMSO, and serially diluted in AB to concentrations required for activation dose response curves. Gly14-Humanin (Humanin peptide with replacement of Serine by Glycine at position 14, Phoenix Peptides) was used as a reference agonist. FLIPR384 or FLIPR Tetra instruments (Molecular Devices) were operated according to the manufacturer's standard instructions, adding 4 μl of test compound dissolved at 10 mM in DMSO and diluted prior to the experiment in assay buffer to obtain the desired final concentration. Changes in fluorescence were monitored before and after the addition of test compounds at lex=488 nm and lem=540 nm. Emission peak values above base level after compounds addition were exported after base line subtraction. Values were normalized to high-level control (GLY14-Humanin compound, 100 nM final concentration) after subtraction of the base line value (AB addition).

Another experiment has as its target T2, human ALX receptor (Homo sapiens, UniProt P25090).
T2 construct: expressed in transfected cells; host or cells: HEK293 (HEK293-hALXR-Gα16)
T2 sequence (P25090 1-351): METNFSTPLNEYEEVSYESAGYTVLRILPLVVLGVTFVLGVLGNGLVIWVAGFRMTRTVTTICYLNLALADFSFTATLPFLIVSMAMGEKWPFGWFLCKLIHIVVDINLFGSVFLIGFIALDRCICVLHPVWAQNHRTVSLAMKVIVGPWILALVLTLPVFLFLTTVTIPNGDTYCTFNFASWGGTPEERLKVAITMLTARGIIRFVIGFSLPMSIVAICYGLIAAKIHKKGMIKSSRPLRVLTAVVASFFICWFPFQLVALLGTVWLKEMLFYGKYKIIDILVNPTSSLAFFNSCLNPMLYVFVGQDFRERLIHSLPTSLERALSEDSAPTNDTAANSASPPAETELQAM
Nature of the experiment: Intracellular calcium measurements (FLIPR), agonistic activity in HEK293-hALXR-Gα16 cells. It counts as cell-based. As to conditions: Fluo-4 calcium FLIPR, normalized to WKYMVm 10 nM. How it is done:
as §1, §2
Cells expressing recombinant human ALX receptor and the G-protein Gα16 (HEK293-hALXR-Gα16) were grown to 80% confluency in Growing Medium (GM). Cells were detached from culture dishes with a cell dissociation buffer (Invitrogen, 13151-014), and collected by centrifugation at 1,000 rpm at rt for 5 min in Assay Buffer (AB) (equal parts of Hank's BSS (Gibco, 14065-049) and DMEM without Phenol Red (Gibco, 11880-028)). After 60 min incubation at 37° C. under 5% CO2 in AB supplemented with 1 μM Fluo-4 (AM) (Invitrogen, F14202), and 20 mM HEPES (Gibco, 15630-056), the cells were washed and resuspended in AB. They were then seeded onto 384-well FLIPR assay plates (Greiner, 781091) at 50′000 cells in 70 μl per well and sedimented by centrifugation at 1,000 rpm for 1 min. Stock solutions of test compounds were made up at a concentration of 10 mM in DMSO, and serially diluted in AB to concentrations required for activation dose response curves. WKYMVm (Phoenix Peptides) was used as a reference agonist. FLIPR384 or FLIPR Tetra instruments (Molecular Devices) were operated according to the manufacturer's standard instructions, adding 4 μl of test compound dissolved at 10 mM in DMSO and diluted prior to the experiment in assay buffer to obtain the desired final concentration. Changes in fluorescence were monitored before and after the addition of test compounds at lex=488 nm and lem=540 nm. Emission peak values above base level after compounds addition were exported after base line subtraction. Values were normalized to high-level control (WKYMVm compound, 10 nM final concentration) after subtraction of the base line value (AB addition).
On the technique in general: Calcium assays in cells follow changes in intracellular calcium, usually with a dye or a luminescent sensor.

Usually pEC50 stands for the EC50 on a negative log10 scale, so that one unit is a factor of ten. For `NCCCCNC(=O)[C@H]1[C@H](C(=O)Nc2ncc(Br)s2)[C@@H]2CC[C@H]1C21CC1` [Example 335, (5R)—N^5-(5-Bromo-thiazol-2-yl)-(6R)—N^6-(4-amino-butyl)-(4S,7R)-[4,7-ethylene-spiro[2.4]heptane]-5,6-dicarboxamide], the pEC50 at human FPRL2 is 5.89; at human ALX receptor, 9.30.
The corresponding values for `O=C(NCCCCN1CCCC1)[C@H]1[C@H](C(=O)NCc2cc(F)cc(C(F)(F)F)c2)[C@@H]2C=C[C@H]1C21CC1` (racemic) [Example 362, (5R*)—N^5-(3-Fluoro-5-trifluoromethylphenyl-methyl)-(6R*)—N^6-(4-pyrrolidino-butyl)-(4S*,7R*)-[4,7-ethenylene-spiro[2.4]heptane]-5,6-dicarboxamide] are 6.51 and 5.04.
Taken in the same sequence, the figures for `CNCCNC(=O)[C@H]1[C@H](C(=O)Nc2ccc(Br)cc2)[C@@H]2C=C[C@H]1C21CC1` (racemic) [Example 21, (5R*)—N^5-(4-Bromophenyl)-(6R*)—N^6-(2-(N-methyl-amino)-ethyl)-(4S*,7R*)-[4,7-ethenylene-spiro[2.4]heptane]-5,6-dicarboxamide] were 5.77 and 8.55.
Taken in the same sequence, the figures for `COc1ccc(CNC(=O)[C@H]2[C@H](C(=O)NCCCCN3CCCC3)[C@H]3C=C[C@@H]2C32CC2)cc1F` (racemic) [Example 228, (5R*)—N^5-(3-Fluoro-4-methoxy-phenyl-methyl)-(6R*)—N^6-(4-pyrrolidin-1-yl-butyl)-(4S*,7R*)-[4,7-ethenylene-spiro[2.4]heptane]-5,6-dicarboxamide] were 6.51 and 6.41.
Consider `CC(C)CCNC(=O)[C@H]1[C@H](C(=O)Nc2ccc(Br)cc2)[C@@H]2C=C[C@H]1C21CC1` (racemic) [Example 58, (5R*)—N^5-(4-Bromophenyl)-(6R*)—N^6-(3-methyl-butyl)-(4S*,7R*)-[4,7-ethenylene-spiro[2.4]heptane]-5,6-dicarboxamide], for which the pEC50 is 5.21 at human FPRL2 and 7.70 at human ALX receptor.
The corresponding values for `O=C(CCc1c[nH]c2ccccc12)NC[C@H]1[C@H](C(=O)Nc2ccc(Br)cc2)[C@@H]2C=C[C@H]1C21CC1` (racemic) [Example 186, (5R*)—N^5-(4-Bromo-phenyl)-(6R*)-6-[(3-1H-indol-3-yl-propionylamino)-methyl]-(4S*,7R*)-[4,7-ethenylene-spiro[2.4]heptane]-5-carboxamide] are 5.05 and 6.33.
The corresponding values for `CCN(CC)CCCCNC(=O)[C@H]1[C@H](C(=O)Nc2ccc(Br)cc2)[C@@H]2C=C[C@H]1C21CC1` (racemic) [Example 11, (5R*)—N^5-(4-Bromophenyl)-(6R*)—N^6-(4-(N,N-diethyl-amino)-butyl)-(4S*,7R*)-[4,7-ethenylene-spiro[2.4]heptane]-5,6-dicarboxamide] are 6.48 and 9.00.
The corresponding values for `O=C(NCCCCN1CCCC1)[C@H]1[C@H](C(=O)Nc2cc(F)c(Br)cc2F)[C@@H]2C=C[C@H]1C21CC1` [Example 314, (5R)—N^5-(4-Bromo-2,5-difluorophenyl)-(6R)—N^6-(4-pyrrolidino-butyl)-(4S,7R)-[4,7-ethenylene-spiro[2.4]heptane]-5,6-dicarboxamide] are 6.69 and 6.99.
On to `O=C(NCCCCN1CCOCC1)[C@H]1[C@H](C(=O)Nc2ccc(Br)cc2)[C@@H]2C=C[C@H]1C21CC1` [Example 211, (5R)—N^5-(4-Bromophenyl)-(6R)—N^6-(4-morpholino-butyl)-(4S,7R)-[4,7-ethenylene-spiro[2.4]heptane]-5,6-dicarboxamide], for which the negative-log EC50 (pEC50) at human FPRL2 is 6.37; on human ALX receptor, 9.28.
